{
  "source": "patent US20230263825A1",
  "about": "“ANTI-CANCER ACTIVITY OF PERBORATE SALTS” (priority 2020, published 2023)",
  "experiment": "Toxicology in rats, oral, histopathology",
  "type": "in vivo",
  "from_the_text": "After 32 days, the rats were sacrificed and their organs were examined under a microscope.",
  "note": "“Also recorded” adds a separate entry of the source.",
  "data": [
    {"smiles": "O.O.O.O.[Na+].[O-]B1OO1", "note": "[sodium perborate tetrahydrate]", "values": [
      {"measurement": "KIDNEY Edema, No Exam", "setting": "rat, in vivo, po, 4 mg/kg", "value": "0/10"},
      {"measurement": "KIDNEY Notable or abnormal, %", "setting": "rat, in vivo, po, 4 mg/kg", "value": 0, "unit": "%"},
      {"measurement": "KIDNEY Notable or abnormal, No Exam", "setting": "rat, in vivo, po, 4 mg/kg", "value": "0/10"},
      {"measurement": "KIDNEY Within normal limits, %", "setting": "rat, in vivo, po, 4 mg/kg", "value": 100, "unit": "%"},
      {"measurement": "KIDNEY Within normal limits, No Exam", "setting": "rat, in vivo, po, 4 mg/kg", "value": "10/10"},
      {"measurement": "LIVER Fattening, %", "setting": "rat, in vivo, po, 4 mg/kg", "value": 0, "unit": "%"},
      {"measurement": "LIVER Fattening, No Exam", "setting": "rat, in vivo, po, 4 mg/kg", "value": "0/10"},
      {"measurement": "LIVER Infiltration, %", "setting": "rat, in vivo, po, 4 mg/kg", "value": 0, "unit": "%"},
      {"measurement": "LIVER Infiltration, No Exam", "setting": "rat, in vivo, po, 4 mg/kg", "value": "0/10"},
      {"measurement": "LIVER Notable or abnormal, %", "setting": "rat, in vivo, po, 4 mg/kg", "value": 0, "unit": "%"},
      {"measurement": "LIVER Notable or abnormal, No Exam", "setting": "rat, in vivo, po, 4 mg/kg", "value": "0/10"},
      {"measurement": "LIVER Within normal limits, %", "setting": "rat, in vivo, po, 4 mg/kg", "value": 100, "unit": "%"},
      {"measurement": "LIVER Within normal limits, No Exam", "setting": "rat, in vivo, po, 4 mg/kg", "value": "10/10"},
      {"measurement": "LUNG Lymphocytic infiltration, %", "setting": "rat, in vivo, po, 4 mg/kg", "value": 0, "unit": "%"},
      {"measurement": "LUNG Lymphocytic infiltration, No Exam", "setting": "rat, in vivo, po, 4 mg/kg", "value": "0/10"},
      {"measurement": "LUNG Notable or abnormal, %", "setting": "rat, in vivo, po, 4 mg/kg", "value": 0, "unit": "%"},
      {"measurement": "LUNG Notable or abnormal, No Exam", "setting": "rat, in vivo, po, 4 mg/kg", "value": "0/10"},
      {"measurement": "LUNG Pulmonary edema, %", "setting": "rat, in vivo, po, 4 mg/kg", "value": 0, "unit": "%"},
      {"measurement": "LUNG Pulmonary edema, No Exam", "setting": "rat, in vivo, po, 4 mg/kg", "value": "0/10"},
      {"measurement": "LUNG Within normal limits, %", "setting": "rat, in vivo, po, 4 mg/kg", "value": 100, "unit": "%"},
      {"measurement": "LUNG Within normal limits, No Exam", "setting": "rat, in vivo, po, 4 mg/kg", "value": "10/10"},
      {"measurement": "PANCREAS Notable or abnormal, %", "setting": "rat, in vivo, po, 4 mg/kg", "value": 0, "unit": "%"},
      {"measurement": "PANCREAS Notable or abnormal, No Exam", "setting": "rat, in vivo, po, 4 mg/kg", "value": "0/10"},
      {"measurement": "PANCREAS Within normal limits, %", "setting": "rat, in vivo, po, 4 mg/kg", "value": 100, "unit": "%"},
      {"measurement": "PANCREAS Within normal limits, No Exam", "setting": "rat, in vivo, po, 4 mg/kg", "value": "10/10"},
      {"measurement": "SPLEEN Notable or abnormal, %", "setting": "rat, in vivo, po, 4 mg/kg", "value": 0, "unit": "%"},
      {"measurement": "SPLEEN Notable or abnormal, No Exam", "setting": "rat, in vivo, po, 4 mg/kg", "value": "0/10"},
      {"measurement": "SPLEEN Within normal limits, %", "setting": "rat, in vivo, po, 4 mg/kg", "value": 100, "unit": "%"},
      {"measurement": "SPLEEN Within normal limits, No Exam", "setting": "rat, in vivo, po, 4 mg/kg", "value": "10/10"},
      {"measurement": "STOMACH Notable or abnormal, %", "setting": "rat, in vivo, po, 4 mg/kg", "value": 0, "unit": "%"},
      {"measurement": "STOMACH Notable or abnormal, No Exam", "setting": "rat, in vivo, po, 4 mg/kg", "value": "0/10"},
      {"measurement": "STOMACH Within normal limits, %", "setting": "rat, in vivo, po, 4 mg/kg", "value": 100, "unit": "%"},
      {"measurement": "STOMACH Within normal limits, No Exam", "setting": "rat, in vivo, po, 4 mg/kg", "value": "10/10"},
      {"measurement": "HEART Notable or abnormal, %", "setting": "rat, in vivo, po, 8 mg/kg/day", "value": 0, "unit": "%"},
      {"measurement": "HEART Notable or abnormal, No Exam", "setting": "rat, in vivo, po, 8 mg/kg/day", "value": "0/10"},
      {"measurement": "HEART Within normal limits, %", "setting": "rat, in vivo, po, 8 mg/kg/day", "value": 100, "unit": "%"},
      {"measurement": "HEART Within normal limits, No Exam", "setting": "rat, in vivo, po, 8 mg/kg/day", "value": "10/10"},
      {"measurement": "INTESTINE, Large Notable or abnormal, %", "setting": "rat, in vivo, po, 8 mg/kg/day", "value": 0, "unit": "%"},
      {"measurement": "INTESTINE, Large Notable or abnormal, No Exam", "setting": "rat, in vivo, po, 8 mg/kg/day", "value": "0/10"},
      {"measurement": "INTESTINE, Large Within normal limits, %", "setting": "rat, in vivo, po, 8 mg/kg/day", "value": 100, "unit": "%"},
      {"measurement": "INTESTINE, Large Within normal limits, No Exam", "setting": "rat, in vivo, po, 8 mg/kg/day", "value": "10/10"},
      {"measurement": "INTESTINE, Small Enteritis, %", "setting": "rat, in vivo, po, 8 mg/kg/day", "value": 10, "unit": "%"},
      {"measurement": "INTESTINE, Small Enteritis, No Exam", "setting": "rat, in vivo, po, 8 mg/kg/day", "value": "1/10"},
      {"measurement": "INTESTINE, Small Notable or abnormal, %", "setting": "rat, in vivo, po, 8 mg/kg/day", "value": 10, "unit": "%"},
      {"measurement": "INTESTINE, Small Notable or abnormal, No Exam", "setting": "rat, in vivo, po, 8 mg/kg/day", "value": "1/10"},
      {"measurement": "INTESTINE, Small Within normal limits, %", "setting": "rat, in vivo, po, 8 mg/kg/day", "value": 90, "unit": "%"},
      {"measurement": "INTESTINE, Small Within normal limits, No Exam", "setting": "rat, in vivo, po, 8 mg/kg/day", "value": "9/10"},
      {"measurement": "KIDNEY Edema, %", "setting": "rat, in vivo, po, 8 mg/kg/day", "value": 0, "unit": "%"},
      {"measurement": "KIDNEY Edema, No Exam", "setting": "rat, in vivo, po, 8 mg/kg/day", "value": "0/10"},
      {"measurement": "KIDNEY Notable or abnormal, %", "setting": "rat, in vivo, po, 8 mg/kg/day", "value": 0, "unit": "%"},
      {"measurement": "KIDNEY Notable or abnormal, No Exam", "setting": "rat, in vivo, po, 8 mg/kg/day", "value": "0/10"},
      {"measurement": "KIDNEY Within normal limits, %", "setting": "rat, in vivo, po, 8 mg/kg/day", "value": 100, "unit": "%"},
      {"measurement": "KIDNEY Within normal limits, No Exam", "setting": "rat, in vivo, po, 8 mg/kg/day", "value": "10/10"},
      {"measurement": "LIVER Fattening, %", "setting": "rat, in vivo, po, 8 mg/kg/day", "value": 0, "unit": "%"},
      {"measurement": "LIVER Fattening, No Exam", "setting": "rat, in vivo, po, 8 mg/kg/day", "value": "0/10"},
      {"measurement": "LIVER Infiltration, %", "setting": "rat, in vivo, po, 8 mg/kg/day", "value": 0, "unit": "%"},
      {"measurement": "LIVER Infiltration, No Exam", "setting": "rat, in vivo, po, 8 mg/kg/day", "value": "0/10"},
      {"measurement": "LIVER Notable or abnormal, %", "setting": "rat, in vivo, po, 8 mg/kg/day", "value": 0, "unit": "%"},
      {"measurement": "LIVER Notable or abnormal, No Exam", "setting": "rat, in vivo, po, 8 mg/kg/day", "value": "0/10"},
      {"measurement": "LIVER Within normal limits, %", "setting": "rat, in vivo, po, 8 mg/kg/day", "value": 100, "unit": "%"},
      {"measurement": "LIVER Within normal limits, No Exam", "setting": "rat, in vivo, po, 8 mg/kg/day", "value": "10/10"},
      {"measurement": "LUNG Lymphocytic infiltration, %", "setting": "rat, in vivo, po, 8 mg/kg/day", "value": 0, "unit": "%"},
      {"measurement": "LUNG Lymphocytic infiltration, No Exam", "setting": "rat, in vivo, po, 8 mg/kg/day", "value": "0/10"},
      {"measurement": "LUNG Notable or abnormal, %", "setting": "rat, in vivo, po, 8 mg/kg/day", "value": 0, "unit": "%"},
      {"measurement": "LUNG Notable or abnormal, No Exam", "setting": "rat, in vivo, po, 8 mg/kg/day", "value": "0/10"},
      {"measurement": "LUNG Pulmonary edema, %", "setting": "rat, in vivo, po, 8 mg/kg/day", "value": 0, "unit": "%"},
      {"measurement": "LUNG Pulmonary edema, No Exam", "setting": "rat, in vivo, po, 8 mg/kg/day", "value": "0/10"},
      {"measurement": "LUNG Within normal limits, %", "setting": "rat, in vivo, po, 8 mg/kg/day", "value": 100, "unit": "%"},
      {"measurement": "LUNG Within normal limits, No Exam", "setting": "rat, in vivo, po, 8 mg/kg/day", "value": "10/10"},
      {"measurement": "PANCREAS Notable or abnormal, %", "setting": "rat, in vivo, po, 8 mg/kg/day", "value": 0, "unit": "%"},
      {"measurement": "PANCREAS Notable or abnormal, No Exam", "setting": "rat, in vivo, po, 8 mg/kg/day", "value": "0/10"},
      {"measurement": "PANCREAS Within normal limits, %", "setting": "rat, in vivo, po, 8 mg/kg/day", "value": 100, "unit": "%"},
      {"measurement": "PANCREAS Within normal limits, No Exam", "setting": "rat, in vivo, po, 8 mg/kg/day", "value": "10/10"},
      {"measurement": "SPLEEN Notable or abnormal, %", "setting": "rat, in vivo, po, 8 mg/kg/day", "value": 0, "unit": "%"},
      {"measurement": "SPLEEN Notable or abnormal, No Exam", "setting": "rat, in vivo, po, 8 mg/kg/day", "value": "0/10"},
      {"measurement": "SPLEEN Within normal limits, %", "setting": "rat, in vivo, po, 8 mg/kg/day", "value": 100, "unit": "%"},
      {"measurement": "SPLEEN Within normal limits, No Exam", "setting": "rat, in vivo, po, 8 mg/kg/day", "value": "10/10"},
      {"measurement": "STOMACH Notable or abnormal, %", "setting": "rat, in vivo, po, 8 mg/kg/day", "value": 0, "unit": "%"},
      {"measurement": "STOMACH Notable or abnormal, No Exam", "setting": "rat, in vivo, po, 8 mg/kg/day", "value": "0/10"},
      {"measurement": "STOMACH Within normal limits, %", "setting": "rat, in vivo, po, 8 mg/kg/day", "value": 100, "unit": "%"},
      {"measurement": "STOMACH Within normal limits, No Exam", "setting": "rat, in vivo, po, 8 mg/kg/day", "value": "10/10"},
      {"measurement": "histopathology overall: toxicity to healthy tissues / organ damage", "setting": "rats, oral 0.125 mg/kg/day to 8 mg/kg/day, 32 days", "value": "no significant organ damage; also recorded: no significant toxicity to healthy tissues"}
    ]}
  ]
}
